From patent US20240279218A1 (Hoffmann-La Roche Inc., priority 2016, published 2024) come the findings set out here.

Assay [1] addresses T1, h-GABA-A α5β3γ2 (Homo sapiens (Human), UniProt P18507+P31644). Briefly: [3H]flumazenil competition binding assay, membranes of HEK293 cells expressing human GABAA receptors. Particulars: displacement of [3H]flumazenil 0.5 nM, HEK293 cells expressing human receptors, mean of two determinations; read-out: Ki h-GABA-A α5β3γ2. Summed up:
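Displacement of [3H]flumazenil from membranes of HEK293 cells transiently expressing human α5β3γ2 receptors, in Krebs-tris buffer pH 7.5. Incubation to equilibrium, 1 h at 4° C., then filtration and scintillation counting. Ki is the mean of two determinations.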

Assay [2] addresses T1, h-GABA-A α5β3γ2. Briefly: Two-electrode voltage clamp electrophysiology in Xenopus oocytes expressing GABAA receptors, modulation of GABA EC20 current. The assay is classed as cell-based. Particulars: Xenopus oocytes; for Efficacy (GABA) %: % modulation of GABA EC20 = 100*(Fold increase−1); for Fold increase h-GABA-A α5β3γ2 oocyte: GABA EC20, test compound at approx. 30 fold its Ki. The gist of the method: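 Values are % modulation of an EC20 GABA response, derived point by point from the ratio of compound-exposed versus control current traces (extremum taken, 100×(fold−1)). Recordings used oocytes injected with human α5, β3, γ2 mRNA, clamped at −80 mV at room temperature, at least 3 oocytes each.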

With `Cc1ccc(-c2noc(C)c2COc2ccc(C(=O)N[C@H]3C[C@H](OCC(F)F)C3)nn2)cn1` [Example 170, trans-N-3-((2,2-difluoroethoxy)cyclobutyl)-6-((5-methyl-3-(6-methylpyridin-3-yl)isoxazol-4-yl)methoxy)pyridazine-3-carboxamide], on h-GABA-A α5β3γ2 [1], the Ki was determined as 8.8 nM. In addition, at h-GABA-A α5β3γ2 [2], the “Efficacy (GABA) %” value came out at 60% and the “Fold increase h-GABA-A α5β3γ2 oocyte” value was 1.6.
For the compound `CCc1onc(-c2ccc(C)nc2)c1COc1ccc(C(=O)NC2CC2)nn1` [Example 123, N-cyclopropyl-6-((5-ethyl-3-(6-methylpyridin-3-yl)isoxazol-4-yl)methoxy)pyridazine-3-carboxamide], at h-GABA-A α5β3γ2 [1], the Ki was 22.1 nM. For the same compound, on h-GABA-A α5β3γ2 [2], the “Efficacy (GABA) %” value was determined as 106% and the “Fold increase h-GABA-A α5β3γ2 oocyte” value amounted to 2.06.
With `Cc1ccc(-c2noc(C)c2COc2nnc(C(=O)NC3CCOCC3)cc2C)cn1` [Example 71], on h-GABA-A α5β3γ2 [1], the Ki was 2.4 nM. Besides, on h-GABA-A α5β3γ2 [2], the “Efficacy (GABA) %” value is recorded as 61% and the “Fold increase h-GABA-A α5β3γ2 oocyte” value was 1.61.
The matching figures for `Cc1ccc(-c2noc(C)c2COc2ccc(C(=O)NCC(C)C)cn2)cn1` [Example 11, N-isobutyl-6-((5-methyl-3-(6-methylpyridin-3-yl)isoxazol-4-yl)methoxy)nicotinamide]: 11.2 nM, 55% and 1.55.
As for `Cc1ccc(-c2noc(C)c2COc2cnc(C(=O)NC3CC4(COC4)C3)cn2)cn1` [Example 101, 5-((5-methyl-3-(6-methylpyridin-3-yl)isoxazol-4-yl)methoxy)-N-(2-oxaspiro[3.3]heptan-6-yl)pyrazine-2-carboxamide], the inhibition constant (Ki) at h-GABA-A α5β3γ2 [1] was 50.6 nM. Further, at h-GABA-A α5β3γ2 [2], the “Efficacy (GABA) %” value came out at 82% and the “Fold increase h-GABA-A α5β3γ2 oocyte” value is given as 1.82.
The matching figures for `Cc1ccc(-c2noc(C)c2COc2ccc(C(=O)N3CCC34COC4)nn2)cn1` [Example 63, (6-((5-methyl-3-(6-methylpyridin-3-yl)isoxazol-4-yl)methoxy)pyridazin-3-yl)(6-oxa-1-azaspiro[3.3]heptan-1-yl)methanone]: 4.6 nM, 79% and 1.79.
The like results for `Cc1ccc(-c2noc(C3CC3)c2COc2ccc(C(=O)NC3(C)COC3)nn2)cn1` [Example 180] were, in that order, 32.6 nM, 173% and 2.73.
The matching figures for `Cc1ccc(-c2noc(C)c2COc2ccc(C(=O)NC3CN(C(C)C)C3)nn2)cn1` [Example 116, N-(1-isopropylazetidin-3-yl)-6-((5-methyl-3-(6-methylpyridin-3-yl)isoxazol-4-yl)methoxy)pyridazine-3-carboxamide]: 4.9 nM, 59% and 1.59.
Take `CCc1onc(-c2ccc(C)nc2)c1COc1ccc(C(=O)NC2CCS(=O)(=O)CC2)cn1` [Example 120, N-(1,1-dioxidotetrahydro-2H-thiopyran-4-yl)-6-((5-ethyl-3-(6-methylpyridin-3-yl)isoxazol-4-yl)methoxy)pyridine-3-carboxamide]: the Ki on h-GABA-A α5β3γ2 [1] was 52.1 nM. Further, at h-GABA-A α5β3γ2 [2], the “Efficacy (GABA) %” value worked out at 160% and the “Fold increase h-GABA-A α5β3γ2 oocyte” value is reported as 2.6.
Consider `CCC[C@@H](CO)NC(=O)c1ccc(OCc2c(-c3ccc(C)nc3)noc2C(F)F)nc1` [Example 125, 6-((5-(difluoromethyl)-3-(6-methyl-3-pyridyl)isoxazol-4-yl)methoxy)-N-((1S)-1-(hydroxymethyl)butyl)pyridine-3-carboxamide], for which, at h-GABA-A α5β3γ2 [1], the Ki amounted to 59 nM. On h-GABA-A α5β3γ2 [2], the “Efficacy (GABA) %” value was 142% and the “Fold increase h-GABA-A α5β3γ2 oocyte” value is reported as 2.42.

What is called Ki is the equilibrium dissociation constant of an inhibitor or competing ligand from its target.
